{
  "source": "ChEMBL document CHEMBL1128007",
  "about": "“Synthesis of a galactose-fucose disaccharide mimic of sialyl Lewis X” (Bioorg Med Chem Lett, 1994)",
  "note": "Calls of active or inactive are those of the source. The rule behind the calls is not given here.",
  "data": [
    {"biological_target": "T1, E-selectin (Homo sapiens) (UniProt P16581)", "T1 sequence (whole entry)": "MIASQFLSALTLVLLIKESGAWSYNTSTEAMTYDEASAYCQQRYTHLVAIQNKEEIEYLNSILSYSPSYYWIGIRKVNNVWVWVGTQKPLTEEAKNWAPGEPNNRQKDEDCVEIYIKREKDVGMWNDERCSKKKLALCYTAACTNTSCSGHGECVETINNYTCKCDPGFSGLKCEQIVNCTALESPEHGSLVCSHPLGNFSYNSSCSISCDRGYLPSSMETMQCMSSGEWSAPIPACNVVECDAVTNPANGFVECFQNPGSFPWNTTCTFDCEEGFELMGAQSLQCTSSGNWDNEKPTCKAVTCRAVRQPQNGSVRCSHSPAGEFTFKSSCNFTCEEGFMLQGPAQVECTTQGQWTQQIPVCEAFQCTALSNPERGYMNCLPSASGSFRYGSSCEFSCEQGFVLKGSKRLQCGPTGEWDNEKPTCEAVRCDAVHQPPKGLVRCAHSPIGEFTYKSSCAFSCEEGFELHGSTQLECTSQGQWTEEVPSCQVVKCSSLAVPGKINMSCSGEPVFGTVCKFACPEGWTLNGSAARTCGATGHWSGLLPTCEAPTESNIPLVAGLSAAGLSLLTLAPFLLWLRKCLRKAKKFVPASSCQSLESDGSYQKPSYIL", "assay": "Compound was tested at 0.05-100 mM concentration to inhibit ca++ mediated binding of HL-60 cells to Selectin E adsorbed onto a multi-well plate; Active", "format": "cell-based", "values": [
      {"smiles": "CC(=O)N[C@H]1[C@H]([C@H](O)[C@H](O)CO)O[C@@](O[C@H]2[C@@H](O)[C@@H](CO)O[C@@H](O[C@@H]([C@H](O[C@@H]3O[C@@H](C)[C@@H](O)[C@@H](O)[C@@H]3O)[C@H](C=O)NC(C)=O)[C@H](O)CO)[C@@H]2O)(C(=O)O)C[C@@H]1O", "Activity": "Active"},
      {"smiles": "CC1OC(OCCOC2CC(CO)C(O)C(OCC(=O)O)C2O)C(O)C(O)C1O", "note": "(stereo not drawn)", "Activity": "Active"},
      {"smiles": "COC1OC(C)C(O)(CC(=O)CCCOC2(C(=O)O)CC(O)C(NC(C)=O)C([C@@H](O)[C@H](O)CO)O2)C(O)C1O", "note": "(stereo partly drawn)", "Activity": "Active"}
    ]}
  ]
}
